≈ marks a conversion by molar mass, not a printed value. Read-outs that look alike come from different tables or passages of the source. Each block holds one molecule with its values, some of them ahead of it.
Experiments:
[1] = Aqueous solubility determination; format: physicochemical
[2] = Human liver microsome stability assay; format: in vitro ADME; settings: for microsomal CLint at 1 μM: human, human liver microsomes, pH 7.4; for HLM t1/2: human liver microsomes 0.1 mg/mL, 1 μM compound, 37 °C, at least two experiments
[3] = tested on: HIV-1 NL4-3 (wild-type); test: microbe, parasite or virus in culture; format: cell-based; settings: for EC50: Human immunodeficiency virus 1, NL43, TZM-bl; for SI (selectivity index): ratio CC50/EC50
[4] = In vitro cytotoxicity in TZM-bl cells; format: cell-based; settings: human

SMILES: Cc1cc(CO)cc(C)c1Oc1cc(Nc2ccc(C#N)cc2)c(N)cc1CO [13e, N^1-(4′-Cyanophenyl)-5-(2″,6″-dimethyl-4″-hydroxymethylphenoxy)-4-hydroxymethylbenzene-1,2-diamine]
solubility at 4 h ([1]; 0.01 M HCl, pH 2): 20.9 to 44.7 µg/mL (≈ 53.7 to 115 µM)

SMILES: Cc1cc(/C=C/C#N)cc(C)c1Oc1cc(Nc2ccc(C#N)cc2)c(N)cc1C(F)(F)F [14a, (E)-N^1-(4′-Cyanophenyl)-5-(4″-cyanovinyl-2″,6″-dimethylphenoxy)-4-trifluoromethylbenzene-1,2-diamine]
microsomal CLint at 1 μM [2]: 150 µL/min/mg

SMILES: COC(=O)c1cc(N)c(Nc2ccc(C#N)cc2)cc1Oc1c(C)cc(/C=C/C#N)cc1C [14c, (E)-N^1-(4′-Cyanophenyl)-5-(4″-cyanovinyl-2″,6″-dimethylphenoxy)-4-methoxycarbonylbenzene-1,2-diamine]
microsomal CLint at 1 μM [2]: 20 µL/min/mg | EC50 [3]: 2.74 nM | EC50 ([3]; read-out: EC50 NL4-3 (wt)): 2.74 ± 0.71 nM

SMILES: Cc1cc(/C=C/C#N)cc(C)c1Oc1cc(Nc2ccc(C#N)cc2)c(N)cc1C(=O)O [14d, (E)-4-Carboxy-N^1-(4′-cyanophenyl)-5-(4″-cyanovinyl-2″,6″-dimethylphenoxy)benzene-1,2-diamine]
EC50 ([3]; read-out: EC50 NL4-3 (wt)): 230 ± 38 nM

SMILES: Cc1cc(/C=C/C#N)cc(C)c1Oc1cc(Nc2ccc(C#N)cc2)c(N)cc1C(N)=O [14e, (E)-4-Carbamoyl-N^1-(4′-cyanophenyl)-5-(4″-cyanovinyl-2″,6″-dimethylphenoxy)benzene-1,2-diamine]
EC50 [3]: 0.87 nM | EC50 ([3]; read-out: EC50 NL4-3): 0.87 nM | EC50 ([3]; read-out: EC50 NL4-3 (wt)): 0.87 ± 0.28 nM

SMILES: CNC(=O)c1cc(N)c(Nc2ccc(C#N)cc2)cc1Oc1c(C)cc(/C=C/C#N)cc1C [14f, (E)-N^1-(4′-Cyanophenyl)-5-(4″-cyanovinyl-2″,6″-dimethylphenoxy)-4-methylcarbamoylbenzene-1,2-diamine]
microsomal CLint at 1 μM [2]: 150 µL/min/mg | EC50 [3]: 5.72 nM | EC50 ([3]; read-out: EC50 NL4-3 (wt)): 5.72 ± 0.94 nM

SMILES: Cc1cc(/C=C/C#N)cc(C)c1Oc1cc(Nc2ccc(C#N)cc2)c(N)cc1CO [14h, (E)-N^1-(4′-Cyanophenyl)-5-(4″-cyanovinyl-2″,6″-dimethylphenoxy)-4-hydroxymethylbenzene-1,2-diamine]
HLM t1/2 [2]: 30.2 min | EC50 [3]: 0.53 nM | EC50 ([3]; read-out: EC50 NL4-3): 0.53 nM | EC50 ([3]; read-out: EC50 NL4-3 (wt)): 0.53 ± 0.13 nM

SMILES: Cc1cc(CCC#N)cc(C)c1Oc1cc(Nc2ccc(C#N)cc2)c(N)cc1C(F)(F)F [15a, 5-(4″-Cyanoethyl-2″,6″-dimethylphenoxy)-N^1-(4′-cyanophenyl)-4-trifluoromethylbenzene-1,2-diamine]
microsomal CLint at 1 μM [2]: 120 µL/min/mg | SI (selectivity index) ([3]; Table 1): > 6454 | solubility at 4 h ([1]; 0.01 M HCl, pH 2, Aqueous solubility pH 2.0, Table 4, pH 2.0, triplicate): 0.33 µg/mL (≈ 0.733 µM)

SMILES: Cc1cc(CCC#N)cc(C)c1Oc1cc(Nc2ccc(C#N)cc2)c(N)cc1N [15i, 5-(4″-Cyanoethyl-2″,6″-dimethyl)phenoxy-N^1-(4′-cyanophenyl)benzene-1,2,4-triamine]
SI (selectivity index) ([3]; Table 2): >3906

SMILES: Cc1cc(/C=C/C#N)cc(C)c1Nc1ccnc(Nc2ccc(C#N)cc2)n1 [compound 2, rilpivirine, reference compound]
HLM t1/2 [2]: 34.2 min | CC50 at 4 days [4]: 19400 nM

SMILES: Cc1cc(/C=C/C#N)cc(C)c1Oc1cc(Nc2ccc(C#N)cc2)c(N)cc1[N+](=O)[O-] [compound 3]
solubility at 4 h [1]: 0.29 µg/mL (≈ 0.682 µM)

Other lines, results leading:

microsomal CLint at 1 μM [2]: 40 µL/min/mg
SMILES: COC(=O)c1cc(N)c(Nc2ccc(C#N)cc2)cc1Oc1c(C)cc(CCC#N)cc1C [15c, 5-(4″-Cyanoethyl-2″,6″-dimethylphenoxy)-N^1-(4′-cyanophenyl)-4-methoxycarbonylbenzene-1,2-diamine]

microsomal CLint at 1 μM [2]: 160 µL/min/mg
SMILES: Cc1cc(CCC#N)cc(C)c1Oc1cc(Nc2ccc(C#N)cc2)c(N)cc1C(N)=O [15e, 4-Carbanoyl-N^1-(4′-cyanophenyl)-5-(4″-cyanoethyl-2″,6″-dimethylphenoxy)benzene-1,2-diamine]

microsomal CLint at 1 μM [2]: 120 µL/min/mg
SMILES: CNC(=O)c1cc(N)c(Nc2ccc(C#N)cc2)cc1Oc1c(C)cc(CCC#N)cc1C [15f, 5-(4″-Cyanoethyl-2″,6″-dimethylphenoxy)-N^1-(4′-cyanophenyl)-4-methylcarbanoylbenzene-1,2-diamine]

microsomal CLint at 1 μM [2]: 330 µL/min/mg
SMILES: Cc1cc(CCC#N)cc(C)c1Oc1cc(Nc2ccc(C#N)cc2)c(N)cc1CO [15h, 5-(4″-Cyanoethyl-2″,6″-dimethylphenoxy)-N^1-(4′-cyanophenyl)-4-hydroxymethylbenzene-1,2-diamine]
